From PubChem BioAssay (NCI) come the findings set out here.

“And” between values parts separate entries of the source, which are not always exact repeats. Equal values may be shown once.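 Interpolation was linear, between the two tested concentrations surrounding the appropriate level; five concentrations were tested over 48 hours in 96-well plates. GI50: concentration for 50% inhibition of growth. TGI denotes the concentration required for complete inhibition of growth.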

Test systems include OVCAR-4 ovarian; COLO 205 colon; HCC-2998 colon; SF-268 CNS; ACHN renal; SNB-19 CNS; M14 melanoma; K-562 leukemia; NCI-H460 lung; SF-539 CNS.
Holding throughout (test): NCI-60 cell line screen, 48 h

`CC1=CCCC2C1(C)CCC(C)C2(C)Cc1cc(O)ccc1O` (stereo not given): the GI50 is 3.58 µM with OVCAR-4 ovarian; 15.6 µM in the experiment on HCC-2998 colon; 5.4 µM in the experiment on SF-268 CNS; 11.5 µM in the experiment with SNB-19 CNS; 5.44 µM in the experiment on K-562 leukemia; 7.19 µM in the experiment on NCI-H460 lung. For the same compound, the GI50 with SF-539 CNS is 11.1 µM. For the same compound, the TGI is 24.8 µM and 10.8 µM in the experiment with OVCAR-4 ovarian; 34.9 µM and 32.1 µM in the experiment with COLO 205 colon; 30 µM and 24.6 µM with HCC-2998 colon; 21.1 µM and 20.7 µM with SF-268 CNS; 25.6 µM with ACHN renal; 27.3 µM and 18.5 µM in the experiment on SNB-19 CNS. Moreover, the TGI in the experiment with M14 melanoma is 29.5 µM; with K-562 leukemia it was 40.8 µM and 19.9 µM; in the experiment with NCI-H460 lung it was 28.9 µM and 20.5 µM; with SF-539 CNS it was 26.3 µM and 23.6 µM.

For the compound `O=[N+]([O-])c1ccc(C2CC(c3ccccc3)=Nc3ccccc3S2)cc1` (stereo not given), the GI50 with OVCAR-4 ovarian is 21.4 µM; with COLO 205 colon it was above 100 µM; in the experiment on HCC-2998 colon it was above 100 µM; in the experiment with SF-268 CNS, above 100 µM; in the experiment on ACHN renal it was 88.7 µM; in the experiment with SNB-19 CNS, above 100 µM. Besides, the GI50 with M14 melanoma was 51 µM; in the experiment on K-562 leukemia, 3.87 µM; in the experiment with NCI-H460 lung, above 100 µM; in the experiment with SF-539 CNS, above 100 µM. Also, the TGI with OVCAR-4 ovarian, in the experiment on COLO 205 colon, with HCC-2998 colon, in the experiment with SF-268 CNS, with ACHN renal and in the experiment with SNB-19 CNS was above 100 µM in each case. Further, the TGI in the experiment on M14 melanoma, in the experiment on K-562 leukemia, in the experiment with NCI-H460 lung and in the experiment on SF-539 CNS was above 100 µM throughout.

For the compound `O=C(O)COc1ccc(C(=O)/C(SS/C(C(=O)c2ccc(OCC(=O)O)c(Cl)c2Cl)=C2\C=C(c3ccc(Cl)cc3)SS2)=C2/C=C(c3ccc(Cl)cc3)SS2)c(Cl)c1Cl`, the TGI is 16.7 µM in the experiment on OVCAR-4 ovarian; 1.27 µM with COLO 205 colon; 25.3 µM in the experiment with HCC-2998 colon; 27.6 µM with SF-268 CNS; 25.4 µM in the experiment with ACHN renal; above 100 µM in the experiment on SNB-19 CNS. Moreover, the TGI in the experiment on M14 melanoma was found to be 26.3 µM; with K-562 leukemia it was 10.7 µM; in the experiment with NCI-H460 lung, 35.6 µM; with SF-539 CNS, 17.9 µM.

Turning to `CCCCNC(=O)C1C(=O)N(CCCC)C(=O)/C1=N\N` (stereo not given), the TGI with OVCAR-4 ovarian, with COLO 205 colon, in the experiment with HCC-2998 colon, in the experiment with SF-268 CNS, in the experiment on ACHN renal and in the experiment with SNB-19 CNS was above 100 µM throughout. Further, the TGI with M14 melanoma, in the experiment with K-562 leukemia, in the experiment on NCI-H460 lung and with SF-539 CNS was above 100 µM in each case.

As for `COc1cc2c(cc1Cc1cccc(Cl)c1F)c(=O)c(C(=O)O)cn2[C@@H](CO)C(C)C`, the GI50 was 3.7 µM with OVCAR-4 ovarian; 2.64 µM in the experiment on COLO 205 colon; 3.13 µM in the experiment on HCC-2998 colon; 5.42 µM in the experiment on SF-268 CNS; 4.63 µM in the experiment with ACHN renal; 3.07 µM with SNB-19 CNS. In addition, the GI50 in the experiment with M14 melanoma was 3.65 µM; in the experiment with K-562 leukemia it was 3.84 µM; in the experiment with NCI-H460 lung it was 3.07 µM; in the experiment with SF-539 CNS, 3.39 µM. In addition, the TGI with OVCAR-4 ovarian amounted to 16.6 µM; with COLO 205 colon, 6.29 µM; in the experiment with HCC-2998 colon it was 11.6 µM; in the experiment with SF-268 CNS, 19.1 µM; in the experiment on ACHN renal it was 20.9 µM; in the experiment on SNB-19 CNS it was 16 µM. In addition, the TGI was 15 µM in the experiment on M14 melanoma, 16.3 µM with K-562 leukemia, 10.6 µM in the experiment on NCI-H460 lung and 10.7 µM in the experiment on SF-539 CNS.

Regarding `[Cl][Hg][c]1ccc(Cl)s1`, the GI50 in the experiment on OVCAR-4 ovarian was 1.76 µM; in the experiment on COLO 205 colon, 1.39 µM; with HCC-2998 colon, 11.9 µM; in the experiment with SF-268 CNS, 3.48 µM; in the experiment with ACHN renal it was 1.78 µM; in the experiment with SNB-19 CNS it was 3.15 µM. The GI50 was 1.55 µM with M14 melanoma, 0.729 µM in the experiment with K-562 leukemia, 8.9 µM in the experiment on NCI-H460 lung and 2.03 µM with SF-539 CNS. The TGI in the experiment with OVCAR-4 ovarian came out at 4.78 µM; in the experiment on COLO 205 colon, 2.9 µM; with HCC-2998 colon, 26.4 µM; in the experiment on SF-268 CNS, 13.3 µM; in the experiment with ACHN renal it was 3.33 µM; with SNB-19 CNS it was 13.4 µM. In addition, the TGI worked out at 3.17 µM in the experiment on M14 melanoma, 7.29 µM with K-562 leukemia, 35.7 µM with NCI-H460 lung and 4.46 µM with SF-539 CNS.

In the case of `Cc1nn2c(nc1=O)sc1ccc3ccccc3c12`, the TGI in the experiment with OVCAR-4 ovarian, in the experiment on COLO 205 colon, with HCC-2998 colon, with SF-268 CNS, in the experiment with ACHN renal and with SNB-19 CNS was above 100 µM each time. Moreover, the TGI in the experiment on M14 melanoma, in the experiment on K-562 leukemia, with NCI-H460 lung and in the experiment on SF-539 CNS was above 100 µM throughout.

For `C[C@]12CC[C@@H]3c4cc(O)c(O)cc4CC[C@H]3[C@@H]1CC[C@@H]2O`, the GI50 in the experiment on OVCAR-4 ovarian was 16.2 µM; in the experiment on COLO 205 colon, 28.9 µM; in the experiment on HCC-2998 colon, 11.2 µM; with SF-268 CNS it was 5.81 µM; with ACHN renal it was 8.94 µM; in the experiment with SNB-19 CNS, 11.1 µM. Also, the GI50 with M14 melanoma was 1.35 µM; in the experiment with K-562 leukemia, 0.499 µM; in the experiment on NCI-H460 lung, 3.75 µM; in the experiment on SF-539 CNS it was 1.64 µM. For the same compound, the TGI in the experiment on OVCAR-4 ovarian is above 100 µM; in the experiment with COLO 205 colon it was above 73.3 µM; in the experiment with HCC-2998 colon, 41.8 µM; with SF-268 CNS, above 83.2 µM; in the experiment on ACHN renal, 54.5 µM; with SNB-19 CNS, above 100 µM. In addition, the TGI in the experiment with M14 melanoma is above 100 µM; in the experiment on K-562 leukemia it was above 100 µM; in the experiment with NCI-H460 lung, 18.1 µM; in the experiment with SF-539 CNS, 5.45 µM.

On to `CCOC(=O)C(N=C(c1ccccc1)c1ccccc1)N(C(=O)OC(C)(C)C)C(=O)OC(C)(C)C` (stereo not given), for which the TGI in the experiment with OVCAR-4 ovarian, in the experiment on COLO 205 colon, in the experiment with HCC-2998 colon, in the experiment on SF-268 CNS, in the experiment on ACHN renal and with SNB-19 CNS was above 100 µM in each case. The TGI in the experiment with K-562 leukemia and with SF-539 CNS was above 100 µM in each case.
